# Measured values taken from US11753603B2, “Acidic cleaning and disinfecting compositions comprising a citric/methansulfonic acid mixture” (THE CLOROX COMPANY, priority 2020, dated 2023).
# System: bacterial population
# Test: Suspension test (kill in 10 minutes)
# Details: 0.1% citric acid alone
# Experimental: Formula A of Table I includes addition of LAE (0.1%) plus APG (1.0%) and enables the use of citric acid levels as low at 0.1% with complete kill in suspension test in 10 minutes.
compound,measurement,value
O=C(O)CC(O)(CC(=O)O)C(=O)O [citric acid],kill in suspension test,little or no kill
